Test results reported in ChEMBL document CHEMBL3885861, “Open TG-GATES”.

Species: Rattus norvegicus
Test: Open TG-GATES - Regimen: Daily Repeat
Format: toxicity, organism-based, Sprague-Dawley
Parameters: regimen Daily Repeat, gender Male, age 6 weeks
Conditions: in vivo, sc, 0.002 mg/kg, […], route subcutaneous injection, dose 2 ug/Kg, dose level Low; for KIDNEY_L / KIDNEY_R / KIDNEY_TOTAL: tissue Kidney; for LIVER: tissue Liver; for A/G / ALP / ALT / AST / BUN / CRE / Ca / Cl / DBIL / GLC / IP / K / LDH / Na / PL / RALB / TBIL / TC / TG / TP / gamma-GTP: tissue Plasma

Q: `CC(=O)O.N=C(N)NCCC[C@@H](NC(=O)[C@@H]1CCCN1C(=O)[C@@H]1CSSCCC(=O)N[C@@H](Cc2ccc(O)cc2)C(=O)N[C@@H](Cc2ccccc2)C(=O)N[C@@H](CCC(N)=O)C(=O)N[C@@H](CC(N)=O)C(=O)N1)C(=O)NCC(N)=O` [DESMOPRESSIN ACETATE] was tested. Which Lym (tissue Blood, time 28 day) did it give?
A: The Lym was 76.2%.

Q: And the MCH (tissue Blood, time 28 day)?
A: The MCH was 19.4 pg.

Q: And the MCHC (tissue Blood, time 28 day)?
A: Its MCHC is 32.8%.

Q: What about the MCV (tissue Blood, time 28 day) of the same compound?
A: Its MCV is 59.4 fL.

Q: And the Mono (tissue Blood, time 28 day)?
A: Its Mono is 7.2%.

Q: What about the Neu (tissue Blood, time 28 day) of the same compound?
A: Its Neu is 15.8%.

Q: And the PT (tissue Blood, time 28 day)?
A: Its PT is 12 s.

Q: And the Plat (tissue Blood, time 28 day)?
A: The Plat was 117.6 x10_4/uL.

Q: And the RBC (tissue Blood, time 28 day)?
A: The RBC was 774.6 x10_4/ul.

Q: What about the Ret (tissue Blood, time 28 day) of the same compound?
A: Its Ret is 4.2%.

Q: What about the WBC (tissue Blood, time 28 day) of the same compound?
A: Its WBC is 132 x10_2/uL.

Q: And the KIDNEY_L (time 7 day)?
A: The KIDNEY_L was 1.2 g.

Q: And the KIDNEY_R (time 7 day)?
A: Its KIDNEY_R is 1.2 g.

Q: And the KIDNEY_TOTAL (time 7 day)?
A: Its KIDNEY_TOTAL is 2.4 g.

Q: And the KIDNEY_L (time 14 day)?
A: Its KIDNEY_L is 1.4 g.

Q: What about the KIDNEY_R (time 14 day) of the same compound?
A: Its KIDNEY_R is 1.4 g.

Q: And the KIDNEY_TOTAL (time 14 day)?
A: Its KIDNEY_TOTAL is 2.7 g.

Q: And the KIDNEY_L (time 28 day)?
A: Its KIDNEY_L is 1.5 g.

Q: What about the KIDNEY_R (time 28 day) of the same compound?
A: Its KIDNEY_R is 1.5 g.

Q: And the KIDNEY_TOTAL (time 28 day)?
A: Its KIDNEY_TOTAL is 3 g.

Q: What about the LIVER (time 7 day) of the same compound?
A: The LIVER was 11.7 g.

Q: And the LIVER (time 14 day)?
A: Its LIVER is 14 g.

Q: What about the LIVER (time 28 day) of the same compound?
A: Its LIVER is 16.3 g.

Q: And the A/G (time 7 day)?
A: The A/G was 1.9.

Q: What about the ALP (time 7 day) of the same compound?
A: Its ALP is 1102.8 IU/L.

Q: And the ALT (time 7 day)?
A: The ALT was 32.8 IU/L.

Q: What about the AST (time 7 day) of the same compound?
A: The AST was 69.6 IU/L.

Q: And the BUN (time 7 day)?
A: The BUN was 17.8 mg/dL.

Q: And the CRE (time 7 day)?
A: The CRE was 0.4 mg/dL.

Q: What about the Ca (time 7 day) of the same compound?
A: The Ca was 13.6 mg/dL.

Q: And the Cl (time 7 day)?
A: The Cl was 99.4 meq/L.

Q: What about the DBIL (time 7 day) of the same compound?
A: The DBIL was 0.012 mg/dL.

Q: What about the GLC (time 7 day) of the same compound?
A: The GLC was 198.6 mg/dL.

Q: What about the IP (time 7 day) of the same compound?
A: The IP was 8.2 mg/dL.

Q: What about the K (time 7 day) of the same compound?
A: The K was 4.8 meq/L.

Q: What about the LDH (time 7 day) of the same compound?
A: Its LDH is 155.6 IU/L.

Q: What about the Na (time 7 day) of the same compound?
A: The Na was 130.6 meq/L.

Q: And the PL (time 7 day)?
A: Its PL is 132.2 mg/dL.

Q: What about the RALB (time 7 day) of the same compound?
A: The RALB was 3.7 g/dL.

Q: What about the TBIL (time 7 day) of the same compound?
A: Its TBIL is 0.044 mg/dL.

Q: And the TC (time 7 day)?
A: The TC was 68.6 mg/dL.

Q: And the TG (time 7 day)?
A: Its TG is 99.4 mg/dL.

Q: And the TP (time 7 day)?
A: Its TP is 5.7 g/dL.

Q: And the gamma-GTP (time 7 day)?
A: Its gamma-GTP is 1 IU/L.

Q: What about the A/G (time 14 day) of the same compound?
A: Its A/G is 1.8.

Q: What about the ALP (time 14 day) of the same compound?
A: Its ALP is 1109.8 IU/L.

Q: And the ALT (time 14 day)?
A: Its ALT is 33.8 IU/L.

Q: What about the AST (time 14 day) of the same compound?
A: The AST was 70 IU/L.

Q: And the BUN (time 14 day)?
A: Its BUN is 16.6 mg/dL.

Q: What about the CRE (time 14 day) of the same compound?
A: Its CRE is 0.4 mg/dL.

Q: What about the Ca (time 14 day) of the same compound?
A: The Ca was 10.8 mg/dL.

Q: What about the Cl (time 14 day) of the same compound?
A: The Cl was 106.2 meq/L.

Q: And the DBIL (time 14 day)?
A: The DBIL was 0.01 mg/dL.

Q: And the GLC (time 14 day)?
A: The GLC was 183.8 mg/dL.

Q: And the IP (time 14 day)?
A: Its IP is 6.9 mg/dL.

Q: And the K (time 14 day)?
A: Its K is 5.3 meq/L.

Q: What about the LDH (time 14 day) of the same compound?
A: The LDH was 146.8 IU/L.

Q: And the Na (time 14 day)?
A: The Na was 138.4 meq/L.

Q: What about the PL (time 14 day) of the same compound?
A: The PL was 135.6 mg/dL.

Q: And the RALB (time 14 day)?
A: The RALB was 3.6 g/dL.

Q: What about the TBIL (time 14 day) of the same compound?
A: Its TBIL is 0.028 mg/dL.

Q: What about the TC (time 14 day) of the same compound?
A: Its TC is 66.6 mg/dL.

Q: And the TG (time 14 day)?
A: Its TG is 111.2 mg/dL.

Q: And the TP (time 14 day)?
A: Its TP is 5.7 g/dL.

Q: What about the gamma-GTP (time 14 day) of the same compound?
A: The gamma-GTP was 1 IU/L.

Q: What about the A/G (time 28 day) of the same compound?
A: Its A/G is 1.5.

Q: And the ALP (time 28 day)?
A: The ALP was 926.6 IU/L.

Q: And the ALT (time 28 day)?
A: The ALT was 27.8 IU/L.

Q: What about the AST (time 28 day) of the same compound?
A: Its AST is 62.6 IU/L.

Q: And the BUN (time 28 day)?
A: Its BUN is 16.6 mg/dL.

Q: What about the CRE (time 28 day) of the same compound?
A: The CRE was 0.4 mg/dL.

Q: What about the Ca (time 28 day) of the same compound?
A: The Ca was 9.3 mg/dL.

Q: What about the Cl (time 28 day) of the same compound?
A: The Cl was 105 meq/L.

Q: And the DBIL (time 28 day)?
A: The DBIL was 0.012 mg/dL.

Q: And the GLC (time 28 day)?
A: The GLC was 193 mg/dL.

Q: And the IP (time 28 day)?
A: Its IP is 6.4 mg/dL.

Q: What about the K (time 28 day) of the same compound?
A: Its K is 4.9 meq/L.

Q: And the LDH (time 28 day)?
A: The LDH was 168 IU/L.

Q: And the Na (time 28 day)?
A: The Na was 139.4 meq/L.

Q: And the PL (time 28 day)?
A: The PL was 142 mg/dL.

Q: What about the RALB (time 28 day) of the same compound?
A: The RALB was 3.8 g/dL.

Q: What about the TBIL (time 28 day) of the same compound?
A: Its TBIL is 0.046 mg/dL.

Q: What about the TC (time 28 day) of the same compound?
A: Its TC is 71.8 mg/dL.

Q: And the TG (time 28 day)?
A: The TG was 158.2 mg/dL.

Q: What about the TP (time 28 day) of the same compound?
A: Its TP is 6.3 g/dL.

Q: What about the gamma-GTP (time 28 day) of the same compound?
A: Its gamma-GTP is 0.6 IU/L.
